Measured values published in US10464896B2, “Efflux-pump inhibitors and therapeutic uses thereof” (Basilea Pharmaceutica International AG, priority 2015, dated 2019).

Tested on: E. coli ATCC25922
Assay: Antibacterial activity in combination with minocycline (growth inhibition)
Assay type: cell-based
Conditions: Escherichia coli, ATCC25922, compound at 25 μM; minocycline 0.25 μg/mL; OD625 23 h minus 1 h; read-out: residual growth of E. coli ATCC25922 (% of uninhibited control) with minocycline
Method: Antibacterial activity in combination with minocycline or with linezolid
Inhibition of growth was measured with E. coli ATCC25922 and P. aeruginosa PAO1 in a 96-well plate format. Cation-adjusted Müller-Hinton broth (caMHB) was inoculated with an overnight culture and incubated at 37° C. on a shaker until OD625 reached 0.6 to 0.7. Density was adjusted to OD600=0.5 by addition of caMHB. 35 μL of the suspension were diluted to 35 mL with caMHB and supplemented with minocycline at the subinhibitory doses of 0.25 μg/mL for E. coli and 8 μg/mL for P. aeruginosa or with linezolid at the subinhibitory dose of 128 μg/mL for E. coli and P. aeruginosa. Each well contained 1 μL of test compound in 100 μL caMHB with minocycline or with linezolid.
Plates were incubated at 37° C. on a plate shaker. OD625 was measured at 1 h, 6 h, and at 23 h.
The difference between OD at 23 h and at 1 h was taken as measure for cell density and compared to controls without inhibitor (i.e. uninhibited control). Results were expressed as residual growth (% of uninhibited control). Enhancement of minocycline or linezolid activity caused reduced residual growth.

| SMILES | activity at 25 µM [%] |
| --- | --- |
| Clc1ccc(COc2ccccc2CCNCC2CNC2)c(Br)c1 [Example 125] | ≤ 10 |
| Clc1ccc(OCc2ccc(Br)c(OCCCNCC3CNC3)c2)c(Br)c1 [Example 126] | ≤ 10 |
| O=Cc1cc(CNCC2CNC2)cc(OCc2ccc(Cl)cc2Br)c1 [Example 127] | ≤ 10 |
| OCc1cc(CNCC2CNC2)cc(OCc2ccc(Cl)cc2Br)c1 [Example 128] | ≤ 10 |
| CCOC(=O)/C=C/c1cc(CNCC2CNC2)cc(OCc2ccc(Cl)cc2Br)c1 [Example 129, Ethyl (E)-3-[3-[(azetidin-3-ylmethylamino)methyl]-5-[(2-bromo-4-chloro-phenyl)methoxy]phenyl]prop-2-enoate] | ≤ 10 |
| Clc1ccc(COc2cc(/C=C/c3ccco3)cc(CNCC3CNC3)c2)c(Br)c1 [Example 130, N-(azetidin-3-ylmethyl)-1-[3-[(2-bromo-4-chloro-phenyl)methoxy]-5-[(E)-2-(2-furyl)vinyl]phenyl]methanamine] | ≤ 10 |
| FC(F)(F)c1cc(Cl)ccc1COc1cccc(CNCC2CCNC2)c1 (centres unmarked) [Example 132] | ≤ 10 |
| Clc1ccc(CSc2ccc(CNCC3CNC3)cc2)c(Br)c1 [Example 133] | ≤ 10 |
| Clc1ccc(CSc2ccc(CNCC3CCNC3)cc2)c(Br)c1 (centres unmarked) [Example 134] | ≤ 10 |
| Clc1ccc(CSc2cccc(CNCC3CCNC3)c2)c(Br)c1 (centres unmarked) [Example 136, 1-[3-[(2-bromo-4-chloro-phenyl)methylsulfanyl]phenyl]-N-(pyrrolidin-3-ylmethyl)methanamine] | ≤ 10 |
| Clc1ccc(/C=C/c2ccc(CNCC3CNC3)cc2)c(Br)c1 [Example 142] | ≤ 10 |
| Clc1ccc(/C=C/c2ccc(CNCC3CCNC3)cc2)c(Br)c1 (centres unmarked) [Example 147] | ≤ 10 |
| O=[N+]([O-])c1ccc(CNCC2CCNC2)cc1OCc1ccc(Cl)cc1Br (centres unmarked) [Example 148] | ≤ 10 |
| Clc1ccc(C#Cc2cccc(CNCC3CNC3)c2)c(Br)c1 [Example 149, N-(azetidin-3-ylmethyl)-1-[3-[2-(2-bromo-4-chlorophenyl)ethynyl]phenyl]methanamine] | ≤ 10 |
| Clc1ccc(C#Cc2cccc(CNCC3CCNC3)c2)c(Br)c1 (centres unmarked) [Example 150] | ≤ 10 |
| Clc1cc(/C=C/c2ccc(Cl)cc2Br)cc(CNCC2CCNC2)c1 (centres unmarked) [Example 157] | ≤ 10 |
| Clc1ccc(CNc2cccc(CNCC3CNC3)c2)c(Br)c1 [Example 158, 3-[(azetidin-3-ylmethylamino)methyl]-N-[(2-bromo-4-chloro-phenyl)methyl]aniline] | ≤ 10 |
| Clc1cc(/C=C/c2ccc(Cl)cc2Br)cc(CNCC2CNC2)c1 [Example 159] | ≤ 10 |
| CC(C)Oc1cc(CNCC2CCNC2)cc(OCc2ccc(Cl)cc2Br)c1 (centres unmarked) [Example 163] | ≤ 10 |
| Clc1ccc(/C=C/c2cccc(CCNCC3CCNC3)c2)c(Br)c1 (centres unmarked) [Example 164] | ≤ 10 |
| Clc1ccc(/C=C/c2cccc(CCNCC3CNC3)c2)c(Br)c1 [Example 165, N-(azetidin-3-ylmethyl)-2-[3-[(E)-2-(2-bromo-4-chloro-phenyl)vinyl]phenyl]ethanamine] | ≤ 10 |
| Clc1ccc(C=CCc2cccc(CNCC3CCNC3)c2)c(Br)c1 (centres unmarked) [Example 169] | ≤ 10 |
| N[C@@H]1CN[C@@H](CNCc2cccc(/C=C/c3ccc(Cl)cc3Br)c2)C1 [Example 171] | ≤ 10 |
| N[C@@H]1CN[C@@H](CNCc2cccc(OCc3ccc(Cl)cc3Br)c2)C1 [Example 172] | ≤ 10 |
| Clc1ccc(COCc2cccc(CNCC3CCNC3)c2)c(Br)c1 (centres unmarked) [Example 174] | ≤ 10 |

| SMILES | activity at 25 µM [%] |
| --- | --- |
| N[C@@H]1CN[C@@H](CNCc2cc(Cl)cc(OCc3ccc(Cl)cc3Br)c2)C1 [Example 175] | ≤ 10 |
| Clc1ccc(COc2cccc(CNCC3CCNC3)c2)c(Cl)c1 (centres unmarked) [Example 176] | ≤ 10 |
| C=CCOc1cc(/C=C/c2ccc(Cl)cc2Br)cc(CNCC2CCNC2)c1 (centres unmarked) [Example 178] | ≤ 10 |
| C=CCOc1cc(/C=C/c2ccc(Cl)cc2Br)cc(CNCC2CNC2)c1 [Example 180] | ≤ 10 |
| Clc1ccc(/C=C/c2cc(CNCC3CCNC3)cc(OCc3ccccc3)c2)c(Br)c1 (centres unmarked) [Example 181] | ≤ 10 |
| CC(C)COc1cc(/C=C/c2ccc(Cl)cc2Br)cc(CNCC2CCNC2)c1 (centres unmarked) [Example 182] | ≤ 10 |
| C=CCOc1cc(CNCC2CNC2)cc(CSc2ccc(Cl)cc2C(F)(F)F)c1 [Example 183] | ≤ 10 |
| C=CCOc1cc(CNCC2CCNC2)cc(CSc2ccc(Cl)cc2C(F)(F)F)c1 (centres unmarked) [Example 184] | ≤ 10 |
| Clc1ccc(/C=C/c2ccc(Cl)cc2OCCCNCC2CCNC2)c(Br)c1 (centres unmarked) [Example 185] | ≤ 10 |
| Clc1ccc(/C=C/c2cc(Cl)ccc2OCCCNCC2CCNC2)c(Br)c1 (centres unmarked) [Example 186] | ≤ 10 |
| Clc1ccc(/C=C/c2ccc(Cl)cc2OCCCNCC2CNC2)c(Br)c1 [Example 187] | ≤ 10 |
| Clc1cc(/C=C/c2ccc(Cl)cc2Br)cc(OCCCNCC2CNC2)c1 [Example 188] | ≤ 10 |
| Clc1cc(/C=C/c2ccc(Cl)cc2Br)cc(OCCCNCC2CCNC2)c1 (centres unmarked) [Example 189] | ≤ 10 |
| CC(C)COc1cc(/C=C/c2ccc(Cl)cc2Br)cc(CNCC2CNC2)c1 [Example 190] | ≤ 10 |
| NCC1CCC(CNCc2cccc(/C=C/c3ccc(Cl)cc3Br)c2)N1 (centres unmarked) [Example 191] | ≤ 10 |
| NCC1CCC(CNCc2cc(Cl)cc(OCc3ccc(Cl)cc3Br)c2)N1 (centres unmarked) [Example 193] | ≤ 10 |
| C=CCOc1cc(CNCC2CCNC2)cc(CSc2ccc(Cl)cc2Br)c1 (centres unmarked) [Example 194] | ≤ 10 |
| C=CCOc1cc(CNCC2CNC2)cc(CSc2ccc(Cl)cc2Br)c1 [Example 196] | ≤ 10 |
| COC(=O)c1ccc(COc2cc(CNCC3CCNC3)cc(OCc3ccc(Cl)cc3Br)c2)cc1 (centres unmarked) [Example 197] | ≤ 10 |
| Clc1ccc(/C=C/c2cc(CNCC3CNC3)cc(OCc3ccccc3)c2)c(Br)c1 [Example 198] | ≤ 10 |
| Clc1ccc(/C=C/c2cc(Cl)ccc2OCCCNCC2CNC2)c(Br)c1 [Example 199] | ≤ 10 |
| Clc1ccc(/C=C/c2ccccc2OCCCNCC2CNC2)c(Br)c1 [Example 200] | ≤ 10 |
| Clc1ccc(/C=C/c2cccc(OCCCNCC3CNC3)c2)c(Br)c1 [Example 201, N-(azetidin-3-ylmethyl)-3-[3-[(E)-2-(2-bromo-4-chloro-phenyl)vinyl]phenoxy]propan-1-amine] | ≤ 10 |
| Clc1ccc(/C=C/c2cccc(OCCCNCC3CCNC3)c2)c(Br)c1 (centres unmarked) [Example 202] | ≤ 10 |
| Clc1ccc(/C=C/c2ccccc2OCCCNCC2CCNC2)c(Br)c1 (centres unmarked) [Example 203] | ≤ 10 |

Same assay, conditions: Escherichia coli, ATCC25922, compound at 50 μM; minocycline 0.25 μg/mL; OD625 23 h minus 1 h; read-out: residual growth of E. coli ATCC25922 (% of uninhibited control) with minocycline

| SMILES | activity at 50 µM [%] |
| --- | --- |
| [O-][S+](Cc1ccc(Cl)cc1Br)c1cccc(CNCC2CCNC2)c1 (centres unmarked) [Example 137, 1-[3-[(2-bromo-4-chloro-phenyl)methylsulfinyl]phenyl]-N-(pyrrolidin-3-ylmethyl)methanamine] | ≤ 50 |
| O=S(=O)(Cc1ccc(Cl)cc1Br)c1ccc(CNCC2CNC2)cc1 [Example 138] | ≤ 50 |
| Ic1ccccc1COc1cccc(CNCC2CNC2)c1 [Example 195] | ≤ 50 |
